# Results from publication PMC3101270 (Biochemistry, 2011).
# Experiments:
# PfOPRT [1] = molecular target: T1, PfOPRT (Plasmodium falciparum, UniProt Q8N0R1); assay: ultrafiltration with 3H/[…]-labelled ligand; assay type: binding
# T1 sequence (Q8N0R1 1-281): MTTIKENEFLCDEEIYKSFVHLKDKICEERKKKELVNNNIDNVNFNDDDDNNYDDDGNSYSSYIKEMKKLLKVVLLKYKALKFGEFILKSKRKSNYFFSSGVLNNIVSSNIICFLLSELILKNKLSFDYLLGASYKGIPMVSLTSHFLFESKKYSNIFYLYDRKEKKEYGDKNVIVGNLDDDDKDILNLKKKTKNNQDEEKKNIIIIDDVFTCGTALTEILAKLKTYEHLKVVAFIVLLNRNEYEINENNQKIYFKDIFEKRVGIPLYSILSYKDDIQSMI
# HsOPRT [2] = molecular target: T2, HsOPRT (Homo sapiens, UniProt P11172); assay: ultrafiltration with 3H/[…]-labelled ligand; assay type: binding
# T2 sequence (P11172 2-214 limits assumed): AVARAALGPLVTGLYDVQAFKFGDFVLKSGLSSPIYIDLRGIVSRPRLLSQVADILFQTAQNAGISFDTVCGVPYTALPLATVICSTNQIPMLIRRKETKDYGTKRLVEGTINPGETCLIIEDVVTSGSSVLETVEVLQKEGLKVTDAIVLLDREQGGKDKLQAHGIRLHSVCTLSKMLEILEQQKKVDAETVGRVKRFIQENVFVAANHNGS
# HsOPRT [3] = molecular target: T2, HsOPRT; assay: enzyme inhibition; assay type: biochemical
# PfOPRT [4] = molecular target: T1, PfOPRT; assay: enzyme inhibition; assay type: biochemical
SMILES,Kd (PfOPRT [1]) [µM],Kd (HsOPRT [2]) [µM],Ki (HsOPRT [3]) [µM],Ki (PfOPRT [4]) [µM]
O=C(O)c1cc(=O)[nH]c(=O)n1[C@@H]1O[C@H](COP(=O)(O)O)[C@@H](O)[C@H]1O [OMP],3.1 ± 1.6,2.5 ± 1.2,–,–
O=S(=O)(O)O [sulfate],–,–,17600 ± 2800,3100 ± 300
